Experimental data taken from patent US10058495B2, “Method of making a skin care product” (The Procter & Gamble Company, priority 2014, dated 2018).
Residues, ends and D or L forms follow the SMILES beside them. *: point of attachment. Palmitoyl = CCCCCCCCCCCCCCCC(=O)*

Legend:
[1] = In vivo skin penetration study #2 (Tape Stripping method), magnetic vs non-magnetic applicator; set-up: species or system human; conditions: for amount of Pal-KTTKS recovered, Sum 2-10 / amount of Pal-KTTKS recovered, Sum 6-10: in ng (unit assumed)
Procedure: This method provides a suitable means of measuring the amount of skin care active present in skin, and comparing active versus passive application of the skin care active. Two identical rectangular areas of 15 cm^2 are marked on the volar forearms of volunteers. A measured dose (approximately 30 mg) of the Pal-KTTKS (SEQ ID NO: 1) formulation is applied to the delineated areas using a screw actuated syringe. Active application is carried out on one of the delineated areas using the three-quarter profile of a purpose made applicator (e.g., an applicator presenting one of the magnetic arrays set forth in Table 2). Passive application is accomplished on the other delineated area using the tip of a finger in a sweeping motion identical to that of the active application. The formulation is spread evenly across the entire delineated region using a sweeping motion with a fixed speed of approximately 23 cm/s to […]. The application period is 30 seconds during which time visual inspection is used to ensure even distribution and absorption of the formulation by skin. The application area is then left uncovered for a further 30 minutes to ensure complete absorption. Tape strip samples may be collected and/or analyzed immediately after the complete absorption is ensured or after a waiting period (e.g., after multiple applications of the formulation over multiple hours or days).
The tape stripping procedure is carried out using 10 commercial pre-cut 22.1 mm tape stripping adhesive discs (e.g., D-SQUAME, available from Cuderm Corporation or equivalent) with an adhesive area of 3.8 cm^2. The 10 tape strips are applied sequentially to the same sampling site, which ideally enables each tape strip to obtain a sample from deeper within the stratum corneum than the tape strip that preceded it. A 22.1 mm diameter circular region is marked at the center of the application area. A tape stripping adhesive disc is placed over the marked area and even pressure applied using, for example, a neoprene roller, rolled ten times over the adhesive disc. The adhesive disc is removed from the skin surface in a single pulling motion using manual tweezers. To ensure even removal of the skin sample, subsequent discs are removed in a “north, south, east and west” orientation, which is within the skill of the ordinary artisan. Each adhesive disc is non-destructively analysed for protein content using a suitable instrument (e.g., SquameScan™ 850 instrument commercially available from Heiland Electronics Wetzlar, Germany, or equivalent). The adhesive disc is then immediately placed into a glass vial containing extraction solvent in preparation for subsequent analysis. Solvent extractions are conducted on each tape strip using conventional extraction methods, which are well known to those of ordinary skill in the art, and measuring the amount of Pal-KTTKS (SEQ ID NO: 1) present in the extract, for example, by high performance liquid chromatography (“HPLC”) and/or mass spectrometry.
The procedure is repeated for the remaining nine strips. An additional strip is obtained from outside the area of application of the skin care formulation to serve as a blank sample. The amount of active is normalized to the amount of protein measured.
This in vivo skin penetration study compares the penetration of Pal-KTTKS (SEQ ID NO: 1) into skin when a Pal-KTTKS (SEQ ID NO: 1)-containing composition is applied with a magnetic applicator (active application) versus application with a non-magnetic applicator (passive application). In this example, 5 test subjects (A to E in Tables 13 and 14) were selected. 18 mg of a composition containing Pal-KTTKS (SEQ ID NO: 1) (Olay® Deep Wrinkle Treatment® brand skin cream available from the Procter & Gamble Company, Cincinnati, Ohio) was applied to two 3 cm×3 cm test sites on the inner forearms of each test subject using the applicator illustrated in FIG. 1C. The applicator used for active application included Array #8 from Table 2. […]

[2] = Ex vivo skin penetration study (Franz cell); type: in vitro ADME, human; conditions: arrays 1 (uni-directional, 27 mT) and 2 (bi-directional, overall 21 mT) of Table 1 versus other arrays tested; 400 μg/ml in 50:50 PG:PB at pH 4
Procedure: An ex vivo skin penetration study was conducted to compare the ability of different magnetic arrays to enhance penetration of Pal-KTTKS (SEQ ID NO: 1) into the epidermis of human skin. The dermis and epidermis of human skin samples obtained from donors aged 60-65 years were heat separated and the dermis discarded. 20 μL of a Pal-KTTKS (SEQ ID NO: 1) containing composition (400 μg/ml in 50:50 PG:PB at pH 4) was placed on human epidermis in Franz cell. Different magnetic arrays were positioned approximately 1.0 mm above the epidermis samples and moved over the samples at the speed a user might move a cosmetic applicator when applying a skin care product (e.g., about 20-25 cm/sec). Samples were taken and measured at 0, 1, 2, 4, 6, 8, 24 hours. […] For the bi-directional arrays herein, the “1st layer” refers to the layer closest to the skin-contacting surface of the applicator, and the “2nd layer” refers to the layer disposed on the side of the 1st layer opposite the side closest to the skin-contacting surface.

[3] = active, array #8, Avg of all test sites
[4] = active, array #8, subject A site 1
[5] = active, array #8, subject A site 2
[6] = active, array #8, subject B site 1
[7] = active, array #8, subject B site 2
[8] = active, array #8, subject C site 1
[9] = active, array #8, subject C site 2
[10] = active, array #8, subject D site 1
[11] = active, array #8, subject D site 2
[12] = active, array #8, subject E site 1
[13] = active, array #8, subject E site 2

amount of Pal-KTTKS recovered, Sum 2-10 [1, 3]: 42.02
amount of Pal-KTTKS recovered, Sum 6-10 [1, 3]: 22.74
amount of Pal-KTTKS recovered, Sum 2-10 [1, 4]: 83.43
amount of Pal-KTTKS recovered, Sum 6-10 [1, 4]: 53.81
amount of Pal-KTTKS recovered, Sum 2-10 [1, 5]: 40.40
amount of Pal-KTTKS recovered, Sum 6-10 [1, 5]: 17.29
amount of Pal-KTTKS recovered, Sum 2-10 [1, 6]: 42.67
amount of Pal-KTTKS recovered, Sum 6-10 [1, 6]: 21.36
amount of Pal-KTTKS recovered, Sum 2-10 [1, 7]: 36.84
amount of Pal-KTTKS recovered, Sum 6-10 [1, 7]: 16.95
amount of Pal-KTTKS recovered, Sum 2-10 [1, 8]: 31.64
amount of Pal-KTTKS recovered, Sum 6-10 [1, 8]: 19.40
amount of Pal-KTTKS recovered, Sum 2-10 [1, 9]: 90.87
amount of Pal-KTTKS recovered, Sum 6-10 [1, 9]: 54.66
amount of Pal-KTTKS recovered, Sum 2-10 [1, 10]: 18.10
amount of Pal-KTTKS recovered, Sum 6-10 [1, 10]: 9.26
amount of Pal-KTTKS recovered, Sum 2-10 [1, 11]: 18.31
amount of Pal-KTTKS recovered, Sum 6-10 [1, 11]: 8.02
amount of Pal-KTTKS recovered, Sum 2-10 [1, 12]: 31.17
amount of Pal-KTTKS recovered, Sum 6-10 [1, 12]: 14.86
amount of Pal-KTTKS recovered, Sum 2-10 [1, 13]: 26.78
amount of Pal-KTTKS recovered, Sum 6-10 [1, 13]: 11.84
Enhancement value Strips 2-10 (active/passive) ([1]; array #8, Avg of the enhancement values of all test sites): 4.00
Enhancement value Strips 2-10 (active/passive) ([1]; array #8, subject A site 1): 1.34
Enhancement value Strips 6-10 (active/passive) ([1]; array #8, subject A site 1): 1.33
Enhancement value Strips 2-10 (active/passive) ([1]; array #8, subject A site 2): 16.52
Enhancement value Strips 2-10 (active/passive) ([1]; array #8, subject B site 1): 3.39
Enhancement value Strips 6-10 (active/passive) ([1]; array #8, subject B site 1): 18.16
Enhancement value Strips 2-10 (active/passive) ([1]; array #8, subject B site 2): 3.47
Enhancement value Strips 2-10 (active/passive) ([1]; array #8, subject C site 1): 2.23
Enhancement value Strips 6-10 (active/passive) ([1]; array #8, subject C site 1): 3.03
Enhancement value Strips 2-10 (active/passive) ([1]; array #8, subject C site 2): 1.32
Enhancement value Strips 6-10 (active/passive) ([1]; array #8, subject C site 2): 1.22
Enhancement value Strips 2-10 (active/passive) ([1]; array #8, subject D site 1): 1.72
Enhancement value Strips 6-10 (active/passive) ([1]; array #8, subject D site 1): 3.63
Enhancement value Strips 2-10 (active/passive) ([1]; array #8, subject D site 2): 2.35
Enhancement value Strips 2-10 (active/passive) ([1]; array #8, subject E site 1): 4.86
Enhancement value Strips 6-10 (active/passive) ([1]; array #8, subject E site 1): 10.70
Enhancement value Strips 2-10 (active/passive) ([1]; array #8, subject E site 2): 2.75
Enhancement value Strips 6-10 (active/passive) ([1]; array #8, subject E site 2): 6.73
amount of Pal-KTTKS recovered, Sum 2-10 ([1]; passive, Avg of all test sites): 20.55
amount of Pal-KTTKS recovered, Sum 6-10 ([1]; passive, Avg of all test sites): 10.01
amount of Pal-KTTKS recovered, Sum 2-10 ([1]; passive, subject A site 1): 62.40
amount of Pal-KTTKS recovered, Sum 6-10 ([1]; passive, subject A site 1): 40.39
amount of Pal-KTTKS recovered, Sum 2-10 ([1]; passive, subject A site 2): 2.45
amount of Pal-KTTKS recovered, Sum 6-10 ([1]; passive, subject A site 2): 0.00
amount of Pal-KTTKS recovered, Sum 2-10 ([1]; passive, subject B site 1): 12.58
amount of Pal-KTTKS recovered, Sum 6-10 ([1]; passive, subject B site 1): 2.25
amount of Pal-KTTKS recovered, Sum 2-10 ([1]; passive, subject B site 2): 10.61
amount of Pal-KTTKS recovered, Sum 6-10 ([1]; passive, subject B site 2): 1.04
amount of Pal-KTTKS recovered, Sum 2-10 ([1]; passive, subject C site 1): 14.16
amount of Pal-KTTKS recovered, Sum 6-10 ([1]; passive, subject C site 1): 5.56
amount of Pal-KTTKS recovered, Sum 2-10 ([1]; passive, subject C site 2): 68.87
amount of Pal-KTTKS recovered, Sum 6-10 ([1]; passive, subject C site 2): 43.44
amount of Pal-KTTKS recovered, Sum 2-10 ([1]; passive, subject D site 1): 10.53
amount of Pal-KTTKS recovered, Sum 6-10 ([1]; passive, subject D site 1): 3.35
amount of Pal-KTTKS recovered, Sum 2-10 ([1]; passive, subject D site 2): 7.81
amount of Pal-KTTKS recovered, Sum 6-10 ([1]; passive, subject D site 2): 0.00
amount of Pal-KTTKS recovered, Sum 2-10 ([1]; passive, subject E site 1): 6.41
amount of Pal-KTTKS recovered, Sum 6-10 ([1]; passive, subject E site 1): 1.72
amount of Pal-KTTKS recovered, Sum 2-10 ([1]; passive, subject E site 2): 9.74
amount of Pal-KTTKS recovered, Sum 6-10 ([1]; passive, subject E site 2): 2.31
penetration enhancement of Pal-KTTKS into epidermis [2]: best penetration enhancement
Compound: CCCCCCCCCCCCCCCC(=O)N[C@@H](CCCCN)C(=O)N[C@H](C(=O)N[C@H](C(=O)N[C@@H](CCCCN)C(=O)N[C@@H](CO)C(=O)O)[C@@H](C)O)[C@@H](C)O [Pal-KTTKS, palmitoyl-lysine-threonine-threonine-lysine-serine] (Palmitoyl-KTTKS-OH; C-terminus assumed)
